In PMC12239085, “Silver(I) Ions Bridging Oxadiazole-2-thione Derivatives with Mitochondriotropic Agents: A Promising Strategy for Potent Anticancer Chemotherapy” (Inorganic Chemistry, 2025):
Several values for one entry are separate records, joined by “and”; a condition that tells them apart may be missing. Identical values can stand only once.

How the values were obtained:
lipoxygenase (LOX) = target: T1, lipoxygenase (LOX) (Glycine max, UniProt P08170); assay: Inhibition of linoleic acid peroxidation by LOX; assay type: biochemical; settings: for IC50: linoleic acid 0.3 mM, borate buffer pH 9, read-out: IC50 against LOX; for pIC50 LOX: p(IC50)= -Log(IC50), Table S4, this study
T1 sequence (P08170 1-839): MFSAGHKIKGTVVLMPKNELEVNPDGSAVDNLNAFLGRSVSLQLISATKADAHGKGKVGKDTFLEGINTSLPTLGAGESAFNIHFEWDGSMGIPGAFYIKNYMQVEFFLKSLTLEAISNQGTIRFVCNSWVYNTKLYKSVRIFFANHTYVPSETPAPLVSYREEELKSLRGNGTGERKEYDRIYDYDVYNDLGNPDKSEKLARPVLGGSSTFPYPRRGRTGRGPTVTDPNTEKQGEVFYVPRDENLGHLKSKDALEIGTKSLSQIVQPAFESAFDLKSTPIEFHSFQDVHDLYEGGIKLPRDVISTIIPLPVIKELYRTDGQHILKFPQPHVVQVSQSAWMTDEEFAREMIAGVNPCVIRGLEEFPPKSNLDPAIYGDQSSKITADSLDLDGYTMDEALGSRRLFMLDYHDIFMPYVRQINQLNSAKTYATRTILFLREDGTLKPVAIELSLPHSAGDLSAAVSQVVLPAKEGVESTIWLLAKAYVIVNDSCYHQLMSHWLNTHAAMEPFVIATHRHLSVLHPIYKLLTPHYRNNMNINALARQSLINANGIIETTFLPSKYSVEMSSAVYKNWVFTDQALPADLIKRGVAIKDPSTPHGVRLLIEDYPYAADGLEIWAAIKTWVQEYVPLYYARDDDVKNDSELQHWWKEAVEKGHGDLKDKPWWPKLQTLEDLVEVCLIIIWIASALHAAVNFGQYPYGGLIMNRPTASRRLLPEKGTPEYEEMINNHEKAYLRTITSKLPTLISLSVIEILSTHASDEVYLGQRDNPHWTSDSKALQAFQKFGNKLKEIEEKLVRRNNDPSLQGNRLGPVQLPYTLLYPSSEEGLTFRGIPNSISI
Procedure: This study performed as previously reported. , In brief, a 0.2 M borate buffer solution at pH 9 was prepared by dissolving boric acid in double-distilled water (ddw). The pH was then adjusted to 9.0 using a 50% w/w sodium hydroxide solution.
The linoleic acid substrate solution was prepared as follows: 0.05 mL of linoleic acid was dissolved in 0.05 cm^3 of 95% ethanol within a volumetric flask. Subsequently, double-distilled water was gradually added until reaching a final volume of 5 cm^3. This solution was then diluted with 30 cm^3 of borate buffer.
The LOX enzyme solution was prepared in an ice-cold bath by diluting a stock solution of 10,000 U/mL. For each reaction, 500 U of enzyme was used per 3 cm^3 of reaction mixture. One unit of LOX activity corresponds to an increase in absorbance at 234 nm of 0.001 per minute.
Enzyme activity was monitored by UV spectrophotometry. Specifically, 0.05 cm^3 of enzyme solution was added to a cuvette containing 2 cm^3 of linoleic acid solution, along with the appropriate volumes of buffer and inhibitor solutions 1–5 (concentration range of 1.5 to 12.5 μΜ). The enzymatic activity was determined by measuring the increase in absorbance at 234 nm, which corresponds to the oxidation of linoleic acid (ε = 25,000 M^–1 cm^–1). During the assays, the substrate concentration was maintained constant at 0.3 mM, while the buffer and inhibitor volumes were adjusted to achieve final inhibitor concentrations ranging from 2 to 30 μM.
The degree of LOX activity (A%) in the presence or absence of the 1–5 was calculated according to the following equation: , A%=(Vo(inthepresenceofinhibitor/Vo(withoutinhibitor))×100(%) where V o is the initial rate.
The value of the initial rate (V o, μΜ min^–1) was calculated according to the following formula: Vo=ΔC/Δt=ΔA/ε×Δt=tgα/ε where C is the concentration of the product (hydroperoxy-linoleic acid), t is the reaction time, ε is the molar extinction coefficient of hydroperoxy-linoleic acid, and tgα represents the slope of the kinetic curve obtained by plotting absorbance against time.

calf thymus (CT)-DNA = assay: CT-DNA binding, UV absorption spectroscopy; settings: for binding constant K b toward CT-DNA: UV absorbance at 300–310 nm, CT-DNA 10–100 μΜ; for percentage of hyperchromism: UV spectra of CT-DNA with gradual additions of complex
Procedure: In order to elucidate the mechanism of action of compounds 1–5 against MCF-7 cells, their interaction with CT-DNA was investigated using UV absorption and fluorescence spectroscopy. The UV absorption spectra of compounds 1–5 were recorded both in the presence and absence of CT-DNA (Figure S27). […] The calculated K b values for 1–5 are (10.5 ± 1.8) × 10^4 (1), (6.3 ± 0.6) × 10^4 (2), (11.3 ± 1.6) × 10^4 (3), (7.5 ± 1.0) × 10^4 (4) and (10.2 ± 1.1) × 10^4 (5) M^–1, respectively.
For the experiments of titration, UV spectra of CT-DNA in buffer solution in the absence and presence of 1–5 at r values of 0–0.13 (r = [complex]/[DNA], [DNA] = 10^–4 M) were recorded. ,− In order to determine the constant K b value, UV spectra of 1–5 in the absence and presence of CT-DNA at r values 1–0.1 ([complex] = 10 μM, [CT DNA] = 10–100 μM) were investigated.^24,26–30 The K b value is obtained from the ratio of the slope to the y-intercept in plots [DNA]/(εa–εf) versus [DNA] (e a = A obsd/[compound], e f = the extinction coefficient for the free compound). ,−

[1] = tested on: MDA-MB-231 human breast adenocarcinoma cells (hormone-independent); assay: SRB antiproliferative assay, MDA-MB-231; assay type: cell-based; settings: 48 h incubation
Procedure: Stock solutions of compounds 1a–5a and 1–5 (0.01 M) in DMSO were freshly prepared and subsequently diluted with cell culture media to appropriate concentrations for various biological experiments. These included the assessment of cell viability using the SRB assay, micronucleus testing, cell morphology studies, cell cycle arrest, AO/EB staining, and mitochondrial membrane permeabilization tests. For CT-DNA binding studies, experiments were conducted in DMSO/buffer solutions. All biological experiments were performed in triplicate or more.
Stock solutions of 1a–5a and 1–5 (0.01 M) were dissolved in DMSO and subsequently diluted with cell culture medium to the desired concentrations (0.5–30 μM). MCF-7, MDA MB-231, and MRC-5 cells were plated in 96-well flat-bottom microplates at various densities: 6000, 8000, and 2000 cells per well, respectively. The cells were incubated for 24 h at 37 °C and then exposed to 1a–5a and 1–5 for 48 h. ,–
Cytotoxicity was evaluated using the SRB colorimetric assay at λ = 568 nm, with cell survival percentages calculated relative to the untreated control cells. Detailed information on the SRB assay procedure can be found in the previous publication. ,–

Row | SMILES | IC50 (lipoxygenase (LOX)) | pIC50 LOX (lipoxygenase (LOX)) | binding constant K b toward CT-DNA (calf thymus (CT)-DNA) | percentage of hyperchromism (calf thymus (CT)-DNA) | IC50 [1]
1 | Fc1ccccc1-c1nnc([S][Ag]([PH](c2ccccc2)(c2ccccc2)c2ccccc2)([PH](c2ccccc2)(c2ccccc2)c2ccccc2)[PH](c2ccccc2)(c2ccccc2)c2ccccc2)o1 [compound 2] | 7.3 µM | 5.1 | 6.3 ± 0.6 × 10^4 M^–1 | 7.6% | 3.9 ± 0.14 µM
2 | Fc1ccc(-c2nnc([S][Ag]([PH](c3ccccc3)(c3ccccc3)c3ccccc3)([PH](c3ccccc3)(c3ccccc3)c3ccccc3)[PH](c3ccccc3)(c3ccccc3)c3ccccc3)o2)cc1 [compound 3] | 6.8 µM | 5.2 | 11.3 ± 1.6 × 10^4 M^–1 and 11.3 × 10^4 M^–1 | 28.0% | 2.52 ± 0.07 µM
3 | c1ccc(-c2nnc([S][Ag]([PH](c3ccccc3)(c3ccccc3)c3ccccc3)([PH](c3ccccc3)(c3ccccc3)c3ccccc3)[PH](c3ccccc3)(c3ccccc3)c3ccccc3)o2)cc1 [compound 1] | 2.5 µM | 5.6 | 10.5 ± 1.8 × 10^4 M^–1 | 4.0% | 4.09 ± 0.17 µM
4 | Clc1cccc(-c2nnc([S][Ag]([PH](c3ccccc3)(c3ccccc3)c3ccccc3)([PH](c3ccccc3)(c3ccccc3)c3ccccc3)[PH](c3ccccc3)(c3ccccc3)c3ccccc3)o2)c1 [compound 5] | 1.8 µM | 5.7 | 10.2 ± 1.1 × 10^4 M^–1 and 10.2 × 10^4 M^–1 | 1.2% | 3.55 ± 0.19 µM
5 | Clc1ccccc1-c1nnc([S][Ag]([PH](c2ccccc2)(c2ccccc2)c2ccccc2)([PH](c2ccccc2)(c2ccccc2)c2ccccc2)[PH](c2ccccc2)(c2ccccc2)c2ccccc2)o1 [compound 4] | 7.5 µM | 5.1 | 7.5 ± 1.0 × 10^4 M^–1 | 8.5% | 4.27 ± 0.15 µM
